Experimental data taken from patent US5840697A, “Peptide inhibitors of calmodulin” (Torrey Pines Institute for Molecular Studies, priority 1996, dated 1998).
Where two headings read alike, the source gives them in different places. Square brackets hold non-standard residues; d marks the D form. Peptide text beside a SMILES is read from it.

What was measured:
rat liver cells = experiment: in vivo rat model: DNA synthesis of rat liver cells after partial hepatectomy; settings: intravenous injection 5 hours after partial hepatectomy, measured 24 hours post hepatectomy
Source text: The effect that calmodulin inhibitors have on DNA synthesis were also studied in vivo in a rat model. Rat liver cells are a useful in vivo system for studying synchronized cells and the cell cycle. By partial hepatectomy, the hepatocyte quiescent cells present in normal adult rat liver can be stimulated to enter the replicative cell cycle and the effect of inhibitors on the cycle analyzed. This example provides the effect of the subject calmodulin inhibitory peptides on the DNA synthesis of rat liver cells in partial hepatectomy stage following intra venal injection of the peptides.
Male Sprague-Dawley rats ([…]; 2 rats per peptide or control) were fasted overnight. Partial hepatectomies were carried out under Ketolar anesthesia (Parke-Davis; Ann Arbor, Mich.), following the procedure described by Higgins and Anderson in Arch. Pathol., 12:186-202 (1931), which is incorporated herein by reference. […] DNA synthesis was assessed by measuring the radioactivity incorporated into DNA following an intraperitoneal injection (0.5 mCi/g body weight) of [^3 H] thymidine 1 hr prior to killing the rat and at 23 hours post hepatectomy. […] The liver tissue was homogenized in 10% trifluoroacetic acid at 4° C. and the DNA extracted and its radioactivity measured following the procedure described by Burton, Biochem. J., 62:315-320 (1956), which is incorporated herein by reference. […]

calmodulin [1] = target: T1, calmodulin (Homo sapiens, UniProt P0DP23); experiment: calcium-dependent phosphodiesterase assay (calmodulin activity); assay type: biochemical
Outline: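 Calmodulin (5 units) stimulation of Ca2+-activated phosphodiesterase measured by coupling cAMP→5'-AMP to 5'-nucleotidase, with released Pi read at 660 nm after ammonium molybdate reaction.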

calmodulin [2] = target: T1, calmodulin; experiment: electrophoretic band shift assay of peptide-calmodulin complexes; assay type: binding
Description: The following samples were subjected to electrophoresis in the gel lane indicated:
Because melittin is known to bind to calmodulin as described, for example, in Comte et al., Biochem. J., 209:269-272 (1983), in the above samples melittin is the positive control. The samples were incubated with calmodulin at 22° C. for 1 hr, and electrophoresed on a 10% acrylamide gel in Tris-glycine buffer under nondenaturating conditions as described in Head and Perry, Biochem. J., 137:145-154 (1974), which is incorporated herein by reference. The gel was then stained with coomasie blue.
The band shifts were also measured using a densitometer. Determination of band width by densitometry was done on the following samples: (1) calmodulin (1 nmol)+EDTA (2 nmol); (2) calmodulin (1 nmol)+Ca^2+ (1 nmol)+Ac-(D)Leu-(D)Trp-(D)Arg-(D)Ile-(D)Leu-(D)Trp-NH2 (100 nmol); and (3) calmodulin (1 nmol)+Ca^2+ (1 nmol).

phosphodiesterase = experiment: calcium-dependent phosphodiesterase assay in the absence of calmodulin; assay type: biochemical; settings: Table III
Description: To sample assay tubes were added the following components: assay buffer, 25 ul; CaCl2, 5 ul; 5'-nucleotidase, 7.5 ul (stock solution is 10 units/ml); calmodulin 5 units; calmodulin inhibitor peptides to obtain the desired final concentration of 50 μM. The volume was then made up to 200 ul with water. Control blanks were prepared replacing the peptides with water. The added components were thoroughly mixed and the tubes incubated at 30° C. for 10 min. Then, 25 ul of cAMP at 10.8 mM was added and incubated for 90 min at 30° C. The reaction was stopped by the addition of 50 ul of 55% trichloroacetic acid (TCA). The samples were centrifuged to remove the protein precipitate and the 50 ul of the supernatant was withdrawn for phosphate measurement. To the supernatant aliquot, 50 ul ammonium molybdate (0.55% in 1.1 N sulfuric acid) was added, followed by the addition of 5 ul of reducing agent (24 g sodium bisulfite, 2.4 g sodium sulfite, 0.5 g of 1-amino-2-naphthol-4-sulfonic acid in 200 ml of water), and the contents were mixed by vortexing. The absorbance of the solution were read at 660 nm using water as a blank, identified as control "Calmo."
As described above, one of the undesirable biological effects of existing calmodulin inhibitors is their non-specific binding to other proteins and the like. Therefore, the specificity of the instant inhibitory peptides for calmodulin was examined. The specificity was determined using the calcium-dependent phosphodiesterase assay described in Example I. The assay was carried out for the determination of IC50 values in the presence of calmodulin (IC50 value for calmodulin) and in the absence of calmodulin (IC50 for phosphodiesterase), the latter of which provides the effect of the inhibitory peptides on the phosphodiesterase.

`CC[C@@H](C)[C@@H](NC(=O)[C@@H](CCCNC(=N)N)NC(=O)[C@@H](Cc1c[nH]c2ccccc12)NC(=O)[C@@H](CC(C)C)NC(C)=O)C(=O)N[C@H](CC(C)C)C(=O)N[C@H](Cc1c[nH]c2ccccc12)C(N)=O` [Ac-(D)Leu-(D)Trp-(D)Arg-(D)Ile-(D)Leu-(D)Trp-NH2] (Ac-[dL][dW][dR][dI][dL][dW]-NH2) was tested, and the “% DNA SYNTHESIS” value (rat liver cells) was 50%, the IC50 (calmodulin [1]; Table I, assayed at 75, 50 and 12.5 μM, average of repeated assays, read-out: Average IC50) was 5.4 µM and the IC50 (calmodulin [1]; Table III, in the presence of calmodulin, read-out: IC50 (μM) for calmodulin) was 7.1 µM. The SPECIFICITY (calmodulin [1]; comparison of IC50 for phosphodiesterase with IC50 for calmodulin) was 17, the “band shift (mobility change) on binding to calmodulin” value (calmodulin [2]; in the presence of Ca2+) was “shifted relative to lane 8” and the “band shift (mobility change) on binding to calmodulin” value (calmodulin [2]; with EDTA (no calcium)) was “no band shift”. For the same compound, the IC50 (phosphodiesterase) was 118 µM.
